In US20210290741A1, “COMPOSITIONS FOR THE TREATMENT OF GRAFT VERSUS HOST DISEASE” (DA VOLTERRA, priority 2018, published 2021):

System: acute Graft vs Host disease
Test: Acute graft vs host disease after bone marrow + T cell transplant in lethally irradiated mice, survival (Example 5)
Assay type: in vivo, mice (129, female)
Details: 129 mice, C57BL/6 bone marrow + T cells at day 0, imipenem 100 mg/kg s.c. 3 times a week day 10-21, activated charcoal 14.4 mg/g in food day 9-22
Experimental: 30 mice (129, female) were lethally irradiated and transplanted with 5 million C57BL/6 T-cell depleted bone marrow cells as well as 1 million C57BL/6 splenic T cells at day 0.
The mice were then split in 3 groups. In group A, they received no further treatment. In group B, an imipenem treatment was initiated at day 10. It consisted of an administration of imipenem (100 mg/kg), 3 times a week by subcutaneous route. The imipenem treatment was stopped at day 21. In group C, the same imipenem treatment as group B was performed. In addition, group C mice received activated charcoal (14.4 mg/g) mixed with their food in a hydrogel every day from day 9 to day 22.
The clinical status of the mice was monitored every day from day 1 to day 21.

## C[C@@H](O)[C@H]1C(=O)N2C(C(=O)O)=C(SCCN=CN)C[C@H]12 [imipenem]
  Survival at day 21: 60%
